# From the NIST ThermoML archive (doi:10.1021/acs.jced.6b00640)
# Numbers after ± are expanded uncertainties.
# Test: xn = mol fraction of the nth substance listed
# Details: 100 kPa, Liquid; for viscosity: Concentric cylinders viscometry; for mass density: Vibrating tube method
smiles,measurement,setting,value
CCOC(=O)CCC(=O)OCC [diethyl butanedioate] + CCCC(=O)OCC,viscosity,"288.15 K, x2 = 0.0999",2.784 ± 0.033 mPa·s
same,viscosity,"288.15 K, x2 = 0.2",2.407 ± 0.029 mPa·s
same,viscosity,"288.15 K, x2 = 0.3003",2.07 ± 0.025 mPa·s
same,viscosity,"288.15 K, x2 = 0.3999",1.782 ± 0.022 mPa·s
same,viscosity,"288.15 K, x2 = 0.5",1.537 ± 0.019 mPa·s
same,viscosity,"288.15 K, x2 = 0.5997",1.334 ± 0.017 mPa·s
same,viscosity,"288.15 K, x2 = 0.7",1.162 ± 0.015 mPa·s
same,viscosity,"288.15 K, x2 = 0.7999",1.015 ± 0.013 mPa·s
same,viscosity,"288.15 K, x2 = 0.8999",0.8744 ± 0.011 mPa·s
same,mass density,"288.15 K, x2 = 0.0999",1032.25 ± 0.83 kg/m3
same,mass density,"288.15 K, x2 = 0.2",1018.97 ± 0.83 kg/m3
same,mass density,"288.15 K, x2 = 0.3003",1004.96 ± 0.83 kg/m3
same,mass density,"288.15 K, x2 = 0.3999",990.34 ± 0.83 kg/m3
same,mass density,"288.15 K, x2 = 0.5",974.86 ± 0.83 kg/m3
same,mass density,"288.15 K, x2 = 0.5997",958.7 ± 0.83 kg/m3
same,mass density,"288.15 K, x2 = 0.7",941.56 ± 0.83 kg/m3
same,mass density,"288.15 K, x2 = 0.7999",923.5 ± 0.83 kg/m3
same,mass density,"288.15 K, x2 = 0.8999",904.39 ± 0.83 kg/m3
same,viscosity,"293.15 K, x2 = 0.0999",2.464 ± 0.029 mPa·s
same,viscosity,"293.15 K, x2 = 0.2",2.146 ± 0.026 mPa·s
same,viscosity,"293.15 K, x2 = 0.3003",1.859 ± 0.023 mPa·s
same,viscosity,"293.15 K, x2 = 0.3999",1.613 ± 0.02 mPa·s
same,viscosity,"293.15 K, x2 = 0.5",1.402 ± 0.017 mPa·s
same,viscosity,"293.15 K, x2 = 0.5997",1.225 ± 0.015 mPa·s
same,viscosity,"293.15 K, x2 = 0.7",1.077 ± 0.014 mPa·s
same,viscosity,"293.15 K, x2 = 0.7999",0.9435 ± 0.012 mPa·s
same,viscosity,"293.15 K, x2 = 0.8999",0.8176 ± 0.011 mPa·s
same,mass density,"293.15 K, x2 = 0.0999",1027.04 ± 0.83 kg/m3
same,mass density,"293.15 K, x2 = 0.2",1013.76 ± 0.83 kg/m3
same,mass density,"293.15 K, x2 = 0.3003",999.74 ± 0.83 kg/m3
same,mass density,"293.15 K, x2 = 0.3999",985.12 ± 0.83 kg/m3
same,mass density,"293.15 K, x2 = 0.5",969.64 ± 0.83 kg/m3
same,mass density,"293.15 K, x2 = 0.5997",953.46 ± 0.83 kg/m3
same,mass density,"293.15 K, x2 = 0.7",936.32 ± 0.83 kg/m3
same,mass density,"293.15 K, x2 = 0.7999",918.25 ± 0.83 kg/m3
same,mass density,"293.15 K, x2 = 0.8999",899.13 ± 0.83 kg/m3
same,viscosity,"298.15 K, x2 = 0.0999",2.202 ± 0.026 mPa·s
same,viscosity,"298.15 K, x2 = 0.2",1.932 ± 0.023 mPa·s
same,viscosity,"298.15 K, x2 = 0.3003",1.684 ± 0.021 mPa·s
same,viscosity,"298.15 K, x2 = 0.3999",1.471 ± 0.018 mPa·s
same,viscosity,"298.15 K, x2 = 0.5",1.286 ± 0.016 mPa·s
same,viscosity,"298.15 K, x2 = 0.5997",1.131 ± 0.014 mPa·s
same,viscosity,"298.15 K, x2 = 0.7",1.002 ± 0.013 mPa·s
same,viscosity,"298.15 K, x2 = 0.7999",0.8815 ± 0.012 mPa·s
same,viscosity,"298.15 K, x2 = 0.8999",0.7679 ± 0.01 mPa·s
same,mass density,"298.15 K, x2 = 0.0999",1021.84 ± 0.83 kg/m3
same,mass density,"298.15 K, x2 = 0.2",1008.55 ± 0.83 kg/m3
same,mass density,"298.15 K, x2 = 0.3003",994.54 ± 0.83 kg/m3
same,mass density,"298.15 K, x2 = 0.3999",979.9 ± 0.83 kg/m3
same,mass density,"298.15 K, x2 = 0.5",964.41 ± 0.83 kg/m3
same,mass density,"298.15 K, x2 = 0.5997",948.23 ± 0.83 kg/m3
same,mass density,"298.15 K, x2 = 0.7",931.08 ± 0.83 kg/m3
same,mass density,"298.15 K, x2 = 0.7999",913 ± 0.83 kg/m3
same,mass density,"298.15 K, x2 = 0.8999",893.87 ± 0.83 kg/m3
same,viscosity,"303.15 K, x2 = 0.0999",1.983 ± 0.024 mPa·s
same,viscosity,"303.15 K, x2 = 0.2",1.749 ± 0.021 mPa·s
same,viscosity,"303.15 K, x2 = 0.3003",1.535 ± 0.019 mPa·s
same,viscosity,"303.15 K, x2 = 0.3999",1.347 ± 0.017 mPa·s
same,viscosity,"303.15 K, x2 = 0.5",1.185 ± 0.015 mPa·s
same,viscosity,"303.15 K, x2 = 0.5997",1.048 ± 0.013 mPa·s
same,viscosity,"303.15 K, x2 = 0.7",0.9351 ± 0.012 mPa·s
same,viscosity,"303.15 K, x2 = 0.7999",0.8255 ± 0.011 mPa·s
same,viscosity,"303.15 K, x2 = 0.8999",0.7228 ± 0.0098 mPa·s
same,mass density,"303.15 K, x2 = 0.0999",1016.65 ± 0.83 kg/m3
same,mass density,"303.15 K, x2 = 0.2",1003.35 ± 0.83 kg/m3
same,mass density,"303.15 K, x2 = 0.3003",989.33 ± 0.83 kg/m3
same,mass density,"303.15 K, x2 = 0.3999",974.68 ± 0.83 kg/m3
same,mass density,"303.15 K, x2 = 0.5",959.18 ± 0.83 kg/m3
same,mass density,"303.15 K, x2 = 0.5997",942.99 ± 0.83 kg/m3
same,mass density,"303.15 K, x2 = 0.7",925.83 ± 0.83 kg/m3
same,mass density,"303.15 K, x2 = 0.7999",907.74 ± 0.83 kg/m3
same,mass density,"303.15 K, x2 = 0.8999",888.59 ± 0.83 kg/m3
same,viscosity,"308.15 K, x2 = 0.0999",1.796 ± 0.022 mPa·s
same,viscosity,"308.15 K, x2 = 0.2",1.593 ± 0.02 mPa·s
same,viscosity,"308.15 K, x2 = 0.3003",1.405 ± 0.017 mPa·s
same,viscosity,"308.15 K, x2 = 0.3999",1.239 ± 0.016 mPa·s
same,viscosity,"308.15 K, x2 = 0.5",1.096 ± 0.014 mPa·s
same,viscosity,"308.15 K, x2 = 0.5997",0.9742 ± 0.013 mPa·s
same,viscosity,"308.15 K, x2 = 0.7",0.8745 ± 0.011 mPa·s
same,viscosity,"308.15 K, x2 = 0.7999",0.7752 ± 0.01 mPa·s
same,viscosity,"308.15 K, x2 = 0.8999",0.6811 ± 0.0094 mPa·s
same,mass density,"308.15 K, x2 = 0.0999",1011.46 ± 0.83 kg/m3
same,mass density,"308.15 K, x2 = 0.2",998.15 ± 0.83 kg/m3
same,mass density,"308.15 K, x2 = 0.3003",984.12 ± 0.83 kg/m3
same,mass density,"308.15 K, x2 = 0.3999",969.46 ± 0.83 kg/m3
same,mass density,"308.15 K, x2 = 0.5",953.96 ± 0.83 kg/m3
same,mass density,"308.15 K, x2 = 0.5997",937.75 ± 0.83 kg/m3
same,mass density,"308.15 K, x2 = 0.7",920.58 ± 0.83 kg/m3
same,mass density,"308.15 K, x2 = 0.7999",902.47 ± 0.83 kg/m3
same,mass density,"308.15 K, x2 = 0.8999",883.31 ± 0.83 kg/m3
same,viscosity,"313.15 K, x2 = 0.0999",1.642 ± 0.02 mPa·s
same,viscosity,"313.15 K, x2 = 0.2",1.465 ± 0.018 mPa·s
same,viscosity,"313.15 K, x2 = 0.3003",1.297 ± 0.016 mPa·s
same,viscosity,"313.15 K, x2 = 0.3999",1.149 ± 0.015 mPa·s
same,viscosity,"313.15 K, x2 = 0.5",1.019 ± 0.013 mPa·s
same,viscosity,"313.15 K, x2 = 0.5997",0.91 ± 0.012 mPa·s
same,viscosity,"313.15 K, x2 = 0.7",0.8216 ± 0.011 mPa·s
same,viscosity,"313.15 K, x2 = 0.7999",0.731 ± 0.0099 mPa·s
same,viscosity,"313.15 K, x2 = 0.8999",0.6451 ± 0.009 mPa·s
same,mass density,"313.15 K, x2 = 0.0999",1006.27 ± 0.83 kg/m3
same,mass density,"313.15 K, x2 = 0.2",992.95 ± 0.83 kg/m3
same,mass density,"313.15 K, x2 = 0.3003",978.91 ± 0.83 kg/m3
same,mass density,"313.15 K, x2 = 0.3999",964.25 ± 0.83 kg/m3
same,mass density,"313.15 K, x2 = 0.5",948.72 ± 0.83 kg/m3
same,mass density,"313.15 K, x2 = 0.5997",932.5 ± 0.83 kg/m3
same,mass density,"313.15 K, x2 = 0.7",915.31 ± 0.83 kg/m3
same,mass density,"313.15 K, x2 = 0.7999",897.18 ± 0.83 kg/m3
same,mass density,"313.15 K, x2 = 0.8999",878 ± 0.83 kg/m3
same,viscosity,"318.15 K, x2 = 0.0999",1.5 ± 0.018 mPa·s
same,viscosity,"318.15 K, x2 = 0.2",1.341 ± 0.017 mPa·s
same,viscosity,"318.15 K, x2 = 0.3003",1.193 ± 0.015 mPa·s
same,viscosity,"318.15 K, x2 = 0.3999",1.061 ± 0.014 mPa·s
same,viscosity,"318.15 K, x2 = 0.5",0.9464 ± 0.012 mPa·s
same,viscosity,"318.15 K, x2 = 0.5997",0.8492 ± 0.011 mPa·s
same,viscosity,"318.15 K, x2 = 0.7",0.7706 ± 0.01 mPa·s
same,viscosity,"318.15 K, x2 = 0.7999",0.6883 ± 0.0095 mPa·s
same,viscosity,"318.15 K, x2 = 0.8999",0.6086 ± 0.0086 mPa·s
same,mass density,"318.15 K, x2 = 0.0999",1001.09 ± 0.83 kg/m3
same,mass density,"318.15 K, x2 = 0.2",987.76 ± 0.83 kg/m3
same,mass density,"318.15 K, x2 = 0.3003",973.7 ± 0.83 kg/m3
same,mass density,"318.15 K, x2 = 0.3999",959.02 ± 0.83 kg/m3
same,mass density,"318.15 K, x2 = 0.5",943.48 ± 0.83 kg/m3
same,mass density,"318.15 K, x2 = 0.5997",927.25 ± 0.83 kg/m3
same,mass density,"318.15 K, x2 = 0.7",910.04 ± 0.83 kg/m3
same,mass density,"318.15 K, x2 = 0.7999",891.89 ± 0.83 kg/m3
same,mass density,"318.15 K, x2 = 0.8999",872.69 ± 0.83 kg/m3
same,viscosity,"323.15 K, x2 = 0.0999",1.384 ± 0.017 mPa·s
same,viscosity,"323.15 K, x2 = 0.2",1.245 ± 0.016 mPa·s
same,viscosity,"323.15 K, x2 = 0.3003",1.113 ± 0.014 mPa·s
same,viscosity,"323.15 K, x2 = 0.3999",0.9951 ± 0.013 mPa·s
same,viscosity,"323.15 K, x2 = 0.5",0.8916 ± 0.012 mPa·s
same,viscosity,"323.15 K, x2 = 0.5997",0.7992 ± 0.011 mPa·s
same,viscosity,"323.15 K, x2 = 0.7",0.7302 ± 0.0099 mPa·s
same,viscosity,"323.15 K, x2 = 0.7999",0.6542 ± 0.0091 mPa·s
same,viscosity,"323.15 K, x2 = 0.8999",0.5785 ± 0.0083 mPa·s
same,mass density,"323.15 K, x2 = 0.0999",995.9 ± 0.83 kg/m3
same,mass density,"323.15 K, x2 = 0.2",982.56 ± 0.83 kg/m3
same,mass density,"323.15 K, x2 = 0.3003",968.49 ± 0.83 kg/m3
same,mass density,"323.15 K, x2 = 0.3999",953.79 ± 0.83 kg/m3
same,mass density,"323.15 K, x2 = 0.5",938.24 ± 0.83 kg/m3
same,mass density,"323.15 K, x2 = 0.5997",921.98 ± 0.83 kg/m3
same,mass density,"323.15 K, x2 = 0.7",904.75 ± 0.83 kg/m3
same,mass density,"323.15 K, x2 = 0.7999",886.58 ± 0.83 kg/m3
same,mass density,"323.15 K, x2 = 0.8999",867.36 ± 0.83 kg/m3
